According to ChEMBL document CHEMBL1201862, “PubChem BioAssay data set” (2004):
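Interpolation was linear, between the two tested concentrations surrounding the appropriate level; five concentrations were tested over 48 hours in 96-well plates. Abbreviation: GI50, concentration required for 50% inhibition of growth.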 Calls of active or inactive are those of the source. Rule as the data show it: active = GI50 up to about 1.1 µM and inactive = higher.

Legend:
Assay in all cases: inhibition of tumour cell growth, NCI panel, 48 h
LXFL 529 = system: LXFL 529
KM12 = system: KM12
SF-539 = system: SF-539
EKVX = system: EKVX
SW-620 = system: SW-620
SNB-19 = system: SNB-19
CCRF-CEM = system: CCRF-CEM
SK-MEL-5 = system: SK-MEL-5
ACHN = system: ACHN
UO-31 = system: UO-31
U-251 = system: U-251
OVCAR-8 = system: OVCAR-8
SNB-75 = system: SNB-75
SN12C = system: SN12C
OVCAR-3 = system: OVCAR-3
UACC-62 = system: UACC-62
HOP-62 = system: HOP-62
MDA-MB-435 = system: MDA-MB-435
DU-145 = system: DU-145
MDA-MB-231 = system: MDA-MB-231

Measured: GI50

Cc1cn(C2CC(n3cncn3)C(C(C)O)O2)c(=O)[nH]c1=O (stereo not given)
inactive: LXFL 529 > 100 µM | KM12 > 100 µM | SF-539 > 100 µM | EKVX > 100 µM | SW-620 > 100 µM | SNB-19 > 100 µM | CCRF-CEM > 100 µM | SK-MEL-5 > 100 µM | ACHN > 100 µM | UO-31 > 100 µM | U-251 > 100 µM | OVCAR-8 > 100 µM | SNB-75 > 100 µM | SN12C > 100 µM | OVCAR-3 > 100 µM | UACC-62 > 100 µM

O=C1N(c2ccccc2)C(=O)C2(SC=NN2Cc2ccccc2)N1c1ccccc1 (stereo not given)
inactive: LXFL 529 > 100 µM | KM12 > 100 µM | SF-539 > 100 µM | EKVX > 100 µM | SW-620 > 100 µM | SNB-19 > 100 µM | CCRF-CEM > 100 µM | SK-MEL-5 > 100 µM | ACHN > 100 µM | UO-31 > 100 µM | U-251 > 100 µM | OVCAR-8 > 100 µM | SNB-75 > 100 µM | SN12C > 100 µM | HOP-62 > 100 µM | OVCAR-3 > 100 µM | UACC-62 > 100 µM

CC(C)NC1CCCCC2c3cc(F)ccc3[C@]12O (stereo not given in full)
inactive: LXFL 529 > 100 µM | KM12 > 100 µM | SF-539 > 100 µM | EKVX > 100 µM | SW-620 > 100 µM | SNB-19 > 100 µM | CCRF-CEM > 100 µM | SK-MEL-5 > 100 µM | ACHN > 100 µM | UO-31 > 100 µM | U-251 > 100 µM | OVCAR-8 > 100 µM | SNB-75 > 100 µM | SN12C > 100 µM | HOP-62 > 100 µM | OVCAR-3 > 100 µM | UACC-62 > 100 µM

CN1C2C=C(c3ccccc3)CC1CC2 (stereo not given)
inactive: LXFL 529 > 100 µM | KM12 > 100 µM | SF-539 > 100 µM | EKVX > 100 µM | SW-620 > 100 µM | SNB-19 > 100 µM | CCRF-CEM > 100 µM | SK-MEL-5 > 100 µM | ACHN > 100 µM | UO-31 > 100 µM | U-251 > 100 µM | OVCAR-8 > 100 µM | SNB-75 56.1 µM | SN12C > 100 µM | OVCAR-3 > 100 µM | UACC-62 > 100 µM

BrC1=CC=C2NC=CC3=CC=NC1C32 (stereo not given)
inactive: LXFL 529 19.5 µM | KM12 24.2 µM | SF-539 12.6 µM | EKVX 39.5 µM | SW-620 8.95 µM | SNB-19 8.51 µM | CCRF-CEM 6.22 µM | SK-MEL-5 20 µM | ACHN 7.26 µM | UO-31 14.5 µM | U-251 7.67 µM | OVCAR-8 16.4 µM | SNB-75 18.3 µM | SN12C 18.6 µM | HOP-62 25.5 µM | OVCAR-3 22 µM | UACC-62 9.53 µM

CNS(=O)(=O)NN(C)S(=O)(=O)c1ccc(OC)cc1
inactive: LXFL 529 > 100 µM | KM12 > 100 µM | SF-539 > 100 µM | EKVX > 100 µM | SW-620 > 100 µM | SNB-19 > 100 µM | CCRF-CEM > 100 µM | SK-MEL-5 > 100 µM | ACHN > 100 µM | UO-31 > 100 µM | U-251 > 100 µM | OVCAR-8 > 100 µM | SNB-75 > 100 µM | SN12C > 100 µM | HOP-62 > 100 µM | UACC-62 > 100 µM

Cc1cc2c(=O)cc(-c3ccc(F)cc3)oc2c(C(=O)O)c1C
inactive: LXFL 529 > 100 µM | KM12 > 100 µM | SF-539 > 100 µM | EKVX > 100 µM | SW-620 > 100 µM | SNB-19 > 100 µM | CCRF-CEM > 100 µM | SK-MEL-5 > 100 µM | ACHN > 100 µM | UO-31 > 100 µM | U-251 > 100 µM | OVCAR-8 > 100 µM | SNB-75 > 100 µM | SN12C > 100 µM | OVCAR-3 > 100 µM | UACC-62 > 100 µM

Nc1ccc(C(=O)NN2C(=O)C(Cl)C2c2ccccc2Cl)cc1 (stereo not given)
inactive: LXFL 529 2.06 µM | KM12 12.1 µM | SF-539 7.93 µM | EKVX 17.5 µM | SW-620 3.46 µM | SNB-19 16.9 µM | CCRF-CEM 1.81 µM | SK-MEL-5 16 µM | ACHN 16.4 µM | UO-31 17 µM | U-251 12.3 µM | OVCAR-8 3.24 µM | SNB-75 16.5 µM | HOP-62 20.3 µM | OVCAR-3 13.8 µM | UACC-62 8.69 µM

O=C(O)CCNS(=O)(=O)c1ccc([N+](=O)[O-])cc1
inactive: LXFL 529 > 100 µM | KM12 > 100 µM | SF-539 > 100 µM | EKVX > 100 µM | SW-620 > 100 µM | SNB-19 > 100 µM | CCRF-CEM > 100 µM | SK-MEL-5 > 100 µM | ACHN > 100 µM | UO-31 66.8 µM | U-251 > 100 µM | OVCAR-8 > 100 µM | SNB-75 > 100 µM | SN12C > 100 µM | OVCAR-3 > 100 µM | UACC-62 > 100 µM

CCOc1cccc2ccc[n+](CC)c12
inactive: LXFL 529 54.7 µM | KM12 49.7 µM | SF-539 > 100 µM | EKVX > 100 µM | SW-620 81.3 µM | SNB-19 > 100 µM | CCRF-CEM 55.8 µM | SK-MEL-5 45.5 µM | ACHN > 100 µM | UO-31 > 100 µM | OVCAR-8 25.2 µM | SNB-75 > 100 µM | SN12C 53.1 µM | HOP-62 > 100 µM | OVCAR-3 56.1 µM | UACC-62 > 100 µM

CC(=O)c1cccc(NCn2nnc3ccccc32)c1
inactive: LXFL 529 > 100 µM | KM12 > 100 µM | SF-539 > 100 µM | EKVX > 100 µM | SW-620 > 100 µM | SNB-19 > 100 µM | CCRF-CEM > 100 µM | ACHN > 100 µM | UO-31 > 100 µM | U-251 > 100 µM | OVCAR-8 > 100 µM | SNB-75 > 100 µM | SN12C > 100 µM | HOP-62 > 100 µM | OVCAR-3 > 100 µM | UACC-62 > 100 µM

O=C(O)CSc1nnc(Cc2ccccc2)[nH]1
inactive: LXFL 529 > 100 µM | KM12 > 100 µM | SF-539 > 100 µM | EKVX > 100 µM | SW-620 > 100 µM | SNB-19 > 100 µM | CCRF-CEM > 100 µM | SK-MEL-5 > 100 µM | ACHN > 100 µM | UO-31 > 100 µM | U-251 > 100 µM | OVCAR-8 > 100 µM | SN12C > 100 µM | HOP-62 > 100 µM | OVCAR-3 > 100 µM | UACC-62 > 100 µM

COc1ccc2c3c1C(=O)CCC3CO2 (stereo not given)
inactive: LXFL 529 > 100 µM | KM12 > 100 µM | SF-539 > 100 µM | EKVX 91 µM | SW-620 > 100 µM | SNB-19 > 100 µM | CCRF-CEM > 100 µM | SK-MEL-5 > 100 µM | ACHN > 100 µM | UO-31 > 100 µM | U-251 > 100 µM | OVCAR-8 > 100 µM | SN12C > 100 µM | HOP-62 > 100 µM | OVCAR-3 > 100 µM | UACC-62 > 100 µM

Cc1ccccc1NC(=O)O/N=C(\Cl)C(C)C
inactive: KM12 18.6 µM | SF-539 9.08 µM | EKVX 2.29 µM | SW-620 1.82 µM | SNB-19 20.8 µM | CCRF-CEM 1.48 µM | MDA-MB-435 13.2 µM | SK-MEL-5 11 µM | ACHN 1.69 µM | DU-145 17.2 µM | UO-31 17.4 µM | MDA-MB-231 17.7 µM | U-251 19.4 µM | OVCAR-8 17.5 µM | SNB-75 17.1 µM | SN12C 1.62 µM | HOP-62 17.3 µM | OVCAR-3 4.29 µM | UACC-62 14.9 µM

CC(C)N(C(C)C)S(=O)(=O)C[C@]12CC[C@H](CC13OCC(CS(=O)(=O)c1ccccc1)O3)C2(C)C (stereo not given in full)
inactive: KM12 36.4 µM | SF-539 44.8 µM | EKVX 39.3 µM | SW-620 45 µM | SNB-19 95.7 µM | CCRF-CEM 32.1 µM | MDA-MB-435 47.1 µM | SK-MEL-5 29.4 µM | ACHN 47.8 µM | DU-145 74.6 µM | UO-31 69.5 µM | MDA-MB-231 > 100 µM | U-251 52 µM | OVCAR-8 47 µM | SNB-75 27.6 µM | SN12C 47.8 µM | HOP-62 > 51.2 µM | OVCAR-3 31.3 µM | UACC-62 49 µM

CC#C[I+]c1ccccc1
inactive: LXFL 529 13.4 µM | KM12 16.5 µM | SF-539 18.2 µM | EKVX 16.2 µM | SNB-19 64.6 µM | CCRF-CEM 4.17 µM | SK-MEL-5 23.4 µM | ACHN 15.7 µM | UO-31 30.3 µM | U-251 15 µM | OVCAR-8 15.1 µM | SNB-75 50 µM | SN12C 12.3 µM | HOP-62 35.3 µM | OVCAR-3 17.5 µM | UACC-62 22.3 µM

COC(OC)c1cccc2c1C1(O)CCC3(CC21)OCCCCO3 (stereo not given)
inactive: LXFL 529 > 100 µM | KM12 > 100 µM | SF-539 > 100 µM | SNB-19 > 100 µM | CCRF-CEM > 100 µM | SK-MEL-5 > 100 µM | ACHN > 100 µM | UO-31 > 100 µM | U-251 > 100 µM | OVCAR-8 > 100 µM | SNB-75 > 100 µM | SN12C > 100 µM | HOP-62 > 100 µM | OVCAR-3 > 100 µM | UACC-62 > 100 µM
